Reference: PubChem BioAssay AID179 (DTP/NCI, 2004)
“And” between values parts separate entries of the source, which are not always exact repeats. Equal values may be shown once. The source made the active and inactive calls.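 How the source made its calls: active means compounds giving half or more protection of infected cells from virus-caused growth loss, again on retest; inactive means the rest.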 Where a SMILES comes first, the peptide text is derived from it.

Test system: CEM cells HIV-1 protection, formazan growth assay
Assay: NCI AIDS Antiviral Assay
Settings: for IC50: measured here: growth of uninfected CEM cells
Method in brief: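 Protection of CEM cells against HIV-1 was scored from cell growth (soluble formazan) across five concentrations, with parallel uninfected cells. Lack of protection may reflect toxicity.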

| Structure (SMILES) | EC50 [µM] | IC50 | outcome |
| --- | --- | --- | --- |
| Cc1ccc(OCC2OC(n3cnc4c(N(C)C)nc(Br)nc43)CC2Oc2ccc(C)cc2)cc1 (configuration not stated) | > 200 | 31.6 µM | – |
| O=C(C[P+](c1ccccc1)(c1ccccc1)c1ccccc1)c1ccccc1 | > 200 | 32.4 µM and 31.6 µM and 37.2 µM | – |
| S=c1sc2ccccc2n1CN1CCCC1 | > 200 | 102 µM | – |
| CCCSc1nn2cc(NC(=O)OC)nc2s1 | > 200 | 2.29 µM | – |
| C[n+]1cccc2ccc(OC(=O)c3ccccc3)cc21 | – | – | inactive |
| COC(=O)C12CCC(C(=O)OC)(Cc3c(c4ccccc4n3S(=O)(=O)c3ccccc3)C1)C2=O (configuration not stated) | > 200 | 85.1 µM | – |
| CCCCCCCCCCCCCCCCOC[C@@H](COC1OC(CO)C(O)C(O)C1O)OCCCCCCCCCCCCCCCC (some centres not stated) | > 4.07 | > 4.07 µM | – |
| CC(C)CC(NC(=O)CNC(=O)C(CC(C)C)NC(=O)C(Cc1c[nH]cn1)NC(=O)C(CC(N)=O)NC(=O)C1CCCN1C(=O)C(C)NC(=O)C(Cc1ccc(O)cc1)NC(=O)C(C)NC(=O)C1CCCN1C(=O)C(CCC(=O)O)NC(=O)C(CC(=O)O)NC(=O)C(Cc1ccccc1)NC(=O)C(CC(N)=O)NC(=O)C(C)N)C(=O)O (configuration not stated) (H-ANFDEPAYAPNHLGL-OH; configuration not given here) | > 38 | > 38 µM | – |
| Cn1c(O)c(C=Nc2ccccc2Cl)c(=O)n(C)c1=O | – | – | inactive |
| CC(=O)N1C(OC(C)C)CC(C)N1c1ccccc1 (configuration not stated) | > 200 | > 200 µM | – |
| COc1ccc(C2OC(=O)c3ccc4ccccc4c32)c(C)c1 (configuration not stated) | > 44.7 | 24.5 µM | – |
| COc1cc(OC)c(C(=O)/C=C/c2ccc(OC)c(OC)c2)c(OC)c1 | – | – | inactive |
| Cc1ccc([N+](=O)[O-])cc1N=NC(=O)NNc1cc([N+](=O)[O-])ccc1C | > 200 | 32.4 µM | – |
| COc1ccc(/C(Cl)=C/c2cc(OC)ccc2OC)cc1 | > 200 | 13.5 µM | – |
| N#CCN1CCN(CC#N)CCN(CC#N)CCN(CC#N)CC1 | > 200 | 28.2 µM | – |
| CC(C)N1CC2CC(CN(C(=O)c3ccccc3)C2)C1 | > 676 | > 676 µM | – |

| Structure (SMILES) | EC50 [µM] | IC50 | outcome |
| --- | --- | --- | --- |
| CC(=O)O[C@H]1CN(S(=O)(=O)c2ccc(C)cc2)C[C@@H]1C1CCCCC1 | > 200 | 28.8 µM | – |
| CC12CCC(CC1)C(C)(C)N=C(N)S2 | > 200 | 56.2 µM | – |
| O=c1c2ccccc2nc(-c2ccccc2Cl)n1NCC1(O)OCC(O)C(O)C1O (configuration not stated) | – | – | inactive |
| CCCNC(=O)CNC(=O)c1ccccc1SC(=O)CCCC[n+]1ccccc1 | 8.32 | 112 µM | – |
| CC1C=C2c3ccccc3CC2C2C(=O)OC(=O)C12 (configuration not stated) | > 200 | > 200 µM | – |
| CCOC(=O)CSc1c([N+](=O)[O-])ncn1C | > 1020 | 170 µM | – |
| c1ccc(Nc2nn3c(CCCCCCCCc4nnc5sc(Nc6ccccc6)nn45)nnc3s2)cc1 | > 200 | 39.8 µM | – |
| O=C(CCC1CCCCN1)Nc1ccc2c(c1)C(=O)c1ccc(NC(=O)CCN3CCCCC3)cc1C2=O (configuration not stated) | – | – | inactive |
| O=C(Nc1ccccc1)Nc1ccccn1 | 166 | > 200 µM | – |
| COc1ccc(/C=C(\Cl)c2ccc(OC)c(OC)c2)cc1OC | 56.2 | > 200 µM | – |
| CN(C)c1ccc(/C=C(\C#N)c2ccc(Cl)cc2Cl)cc1 | > 200 | 3.39 µM | – |
| NC(CNC(=O)CBr)C(=O)O (configuration not stated) | > 813 | 155 µM | – |
| CC(O)(c1ccc(OCCC[N+](C)(C)C)cc1)C(C)(O)c1ccc(OCCC[N+](C)(C)C)cc1 (configuration not stated) | > 1820 | 794 µM | – |
| COc1ccc(N2C(=O)c3c4c(c5c([nH]c6ncccc65)c3C2=O)CCC(C(C)(C)C)C4)cc1 (configuration not stated) | 191 | > 200 µM | – |
| O=c1cc(CSc2c(-c3ccccc3)c(=O)n(-c3ccccc3)c(=S)n2-c2ccccc2)[nH]c(=O)[nH]1 | > 200 | > 200 µM | – |
